Reference: patent US20040102364A1, “Backbone cyclized radiolabelled somatostatin analogs” (priority 2001, published 2004)
Where two headings read alike, the source gives them in different places.

Tests used:
rat SST-R4 = rat SST-R4 (Rattus norvegicus, UniProt P30937); assay: Subtype selectivity binding, rat SST-R4
Method: (§1) The SST analogs were tested for their potency in inhibition of the binding of ^125I-Tyr^11-SRIF (based on the method described by Raynor et. al., Molecular Pharmacology 43: 838, 1993) to membrane preparations expressing the transmembranal SST receptors (SST-R1, 2, 3, 4 or 5). The receptor preparations used for these tests were either from the cloned human receptors selectively and stably expressed in Chinese Hamster Ovary (CHO) cells or from cell lines naturally expressing the SST-Rs. […] The binding reactions were filtered, the filters were washed and the bound radioactivity was counted in β counter after addition of scintillation solution.
(§2) MPS-30012-02, 30012-08 and 30012-24 were all re-synthesized naked, purified and radiolabelled with ^99mTc. In vitro binding studies on all three ^99mTc compounds was performed. 30012-05, 30012-08 and 30012-24 were screened for subtype selectivity analysis.

rat SST-R1 = rat SST-R1 (Rattus norvegicus, UniProt P28646); assay: Subtype selectivity binding, rat SST-R1
Method: as §1, §2

rat SST-R5 = molecular target: T1, rat SST-R5 (Rattus norvegicus, UniProt P30938); assay: Subtype selectivity binding, rat SST-R5
T1 sequence (P30938 1-363): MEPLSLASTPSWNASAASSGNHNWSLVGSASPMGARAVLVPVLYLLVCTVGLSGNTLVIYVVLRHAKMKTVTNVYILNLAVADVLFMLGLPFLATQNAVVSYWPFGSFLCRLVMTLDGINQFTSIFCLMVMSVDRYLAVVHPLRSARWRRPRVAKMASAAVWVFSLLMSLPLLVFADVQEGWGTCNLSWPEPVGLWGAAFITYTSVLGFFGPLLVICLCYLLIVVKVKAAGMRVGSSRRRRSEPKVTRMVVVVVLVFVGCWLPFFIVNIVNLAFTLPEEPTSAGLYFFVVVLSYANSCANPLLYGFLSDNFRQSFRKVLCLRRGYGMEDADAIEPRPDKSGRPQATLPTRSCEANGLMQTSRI
Method: as §1, §2

rat SST-R3 = rat SST-R3 (Rattus norvegicus, UniProt P30936); assay: Subtype selectivity binding, rat SST-R3
Method: as §1, §2

rat SST-R2 = rat SST-R2 (Rattus norvegicus, UniProt P30680); assay: Subtype selectivity binding, rat SST-R2
Method: as §1, §2

human SST-R3 = molecular target: T2, human SST-R3 (Homo sapiens, UniProt P32745); assay: Inhibition of 125I-Tyr11-SRIF binding to cloned human SST-R3 membranes; conditions: human cloned receptor; read-out: Concentration (nM) of SST analogs to inhibit SRIF binding by 50%, SST-R 3
T2 construct: expressed in transfected cells; host or cells: CHO cells
Method: as §1

human SST-R1 = molecular target: T3, human SST-R1 (Homo sapiens, UniProt P30872); assay: Inhibition of 125I-Tyr11-SRIF binding to cloned human SST-R1 membranes; conditions: human cloned receptor; read-out: Concentration (nM) of SST analogs to inhibit SRIF binding by 50%, SST-R 1
T3 construct: expressed in transfected cells; host or cells: CHO cells
Method: as §1

human SST-R5 = molecular target: T4, human SST-R5 (Homo sapiens, UniProt P35346); assay: Inhibition of 125I-Tyr11-SRIF binding to cloned human SST-R5 membranes; conditions: human cloned receptor; read-out: Concentration (nM) of SST analogs to inhibit SRIF binding by 50%, SST-R 5
T4 construct: expressed in transfected cells; host or cells: CHO cells
Method: as §1

human SST-R4 = molecular target: T5, human SST-R4 (Homo sapiens, UniProt P31391); assay: Inhibition of 125I-Tyr11-SRIF binding to cloned human SST-R4 membranes; conditions: human cloned receptor; read-out: Concentration (nM) of SST analogs to inhibit SRIF binding by 50%, SST-R 4
T5 construct: expressed in transfected cells; host or cells: CHO cells
Method: as §1

human cloned SST-R2 = molecular target: T6, human cloned SST-R2 (Homo sapiens, UniProt P30874); assay: Inhibition of 125I-Tyr11-SRIF binding to cloned human SST-R2 membranes (CHO cells); conditions: human cloned receptor; read-out: Concentration (nM) of SST analogs to inhibit SRIF binding by 50%, SST-R 2
T6 construct: expressed in transfected cells; host or cells: CHO cells
Method: as §1

[1] = # rows: determined in rat somatostatin receptors, read-out: Concentration (nM) of SST analogs to inhibit SRIF binding by 50%, SST-R 4
[2] = rat SST-R4, read-out: Selectivity: IC50, nM, rat SST-R-4
[3] = # rows: determined in rat somatostatin receptors, read-out: Concentration (nM) of SST analogs to inhibit SRIF binding by 50%, SST-R 1
[4] = rat SST-R1, read-out: Selectivity: IC50, nM, rat SST-R-1
[5] = # rows: determined in rat somatostatin receptors, read-out: Concentration (nM) of SST analogs to inhibit SRIF binding by 50%, SST-R 5
[6] = rat SST-R5, read-out: Selectivity: IC50, nM, rat SST-R-5
[7] = # rows: determined in rat somatostatin receptors, read-out: Concentration (nM) of SST analogs to inhibit SRIF binding by 50%, SST-R 3
[8] = rat SST-R3, read-out: Selectivity: IC50, nM, rat SST-R-3
[9] = # rows: determined in rat somatostatin receptors, read-out: Concentration (nM) of SST analogs to inhibit SRIF binding by 50%, SST-R 2
[10] = rat SST-R2, read-out: Selectivity: IC50, nM, rat SST-R-2

Chain of rat SST-R1 (P28646 whole entry): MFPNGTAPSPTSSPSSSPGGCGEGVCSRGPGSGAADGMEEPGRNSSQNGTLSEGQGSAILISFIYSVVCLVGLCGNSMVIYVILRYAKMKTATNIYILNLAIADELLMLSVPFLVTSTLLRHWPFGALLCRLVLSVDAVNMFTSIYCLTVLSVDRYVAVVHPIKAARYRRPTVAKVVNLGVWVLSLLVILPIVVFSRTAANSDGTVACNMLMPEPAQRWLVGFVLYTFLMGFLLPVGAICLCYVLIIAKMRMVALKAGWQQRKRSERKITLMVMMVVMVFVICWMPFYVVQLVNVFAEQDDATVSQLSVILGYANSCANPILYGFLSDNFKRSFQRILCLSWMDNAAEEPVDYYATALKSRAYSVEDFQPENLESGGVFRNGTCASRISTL
Chain of rat SST-R4 (P30937 whole entry): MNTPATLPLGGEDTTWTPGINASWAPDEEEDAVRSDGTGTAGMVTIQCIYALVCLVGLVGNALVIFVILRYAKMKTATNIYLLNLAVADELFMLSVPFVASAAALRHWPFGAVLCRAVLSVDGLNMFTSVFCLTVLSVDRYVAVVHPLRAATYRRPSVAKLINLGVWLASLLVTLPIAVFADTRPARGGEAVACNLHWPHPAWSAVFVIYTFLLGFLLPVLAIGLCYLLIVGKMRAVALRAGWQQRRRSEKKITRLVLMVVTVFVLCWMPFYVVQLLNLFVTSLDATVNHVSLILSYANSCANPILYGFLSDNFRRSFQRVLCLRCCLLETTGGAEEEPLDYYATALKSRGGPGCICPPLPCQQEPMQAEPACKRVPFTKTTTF
Chain of rat SST-R3 (P30936 whole entry): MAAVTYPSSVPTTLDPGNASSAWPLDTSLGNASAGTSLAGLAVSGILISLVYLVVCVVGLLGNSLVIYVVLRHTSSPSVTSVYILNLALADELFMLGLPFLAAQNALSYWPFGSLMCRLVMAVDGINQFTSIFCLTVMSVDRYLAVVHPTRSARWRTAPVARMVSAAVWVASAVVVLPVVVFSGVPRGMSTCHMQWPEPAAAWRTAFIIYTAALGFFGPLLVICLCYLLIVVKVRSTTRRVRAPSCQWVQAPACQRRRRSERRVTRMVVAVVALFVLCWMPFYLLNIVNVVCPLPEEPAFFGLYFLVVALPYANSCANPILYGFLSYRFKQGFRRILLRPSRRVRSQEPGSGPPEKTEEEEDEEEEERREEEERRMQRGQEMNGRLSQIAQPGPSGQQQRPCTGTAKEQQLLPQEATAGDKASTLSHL
Chain of rat SST-R2 (P30680 whole entry): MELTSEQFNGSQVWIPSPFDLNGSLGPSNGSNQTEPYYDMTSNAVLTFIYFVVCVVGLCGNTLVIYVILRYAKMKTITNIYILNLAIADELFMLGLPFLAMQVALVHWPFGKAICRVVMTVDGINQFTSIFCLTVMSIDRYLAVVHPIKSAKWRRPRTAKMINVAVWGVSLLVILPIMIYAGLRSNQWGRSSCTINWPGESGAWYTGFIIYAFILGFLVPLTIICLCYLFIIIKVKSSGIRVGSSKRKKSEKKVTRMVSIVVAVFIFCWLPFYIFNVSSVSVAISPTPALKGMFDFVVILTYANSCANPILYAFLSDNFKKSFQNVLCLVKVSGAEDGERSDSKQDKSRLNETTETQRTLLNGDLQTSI
T6 sequence (P30874 whole entry): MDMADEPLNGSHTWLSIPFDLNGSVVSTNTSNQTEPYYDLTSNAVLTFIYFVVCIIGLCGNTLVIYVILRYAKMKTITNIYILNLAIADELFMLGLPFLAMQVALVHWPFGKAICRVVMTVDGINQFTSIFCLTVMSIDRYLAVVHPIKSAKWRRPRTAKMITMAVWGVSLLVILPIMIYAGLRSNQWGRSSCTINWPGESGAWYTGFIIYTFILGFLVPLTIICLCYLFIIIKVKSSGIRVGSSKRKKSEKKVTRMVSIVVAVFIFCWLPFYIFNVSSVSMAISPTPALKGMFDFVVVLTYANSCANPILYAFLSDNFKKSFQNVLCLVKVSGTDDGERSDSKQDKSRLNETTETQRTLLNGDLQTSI
T2 sequence (P32745 whole entry): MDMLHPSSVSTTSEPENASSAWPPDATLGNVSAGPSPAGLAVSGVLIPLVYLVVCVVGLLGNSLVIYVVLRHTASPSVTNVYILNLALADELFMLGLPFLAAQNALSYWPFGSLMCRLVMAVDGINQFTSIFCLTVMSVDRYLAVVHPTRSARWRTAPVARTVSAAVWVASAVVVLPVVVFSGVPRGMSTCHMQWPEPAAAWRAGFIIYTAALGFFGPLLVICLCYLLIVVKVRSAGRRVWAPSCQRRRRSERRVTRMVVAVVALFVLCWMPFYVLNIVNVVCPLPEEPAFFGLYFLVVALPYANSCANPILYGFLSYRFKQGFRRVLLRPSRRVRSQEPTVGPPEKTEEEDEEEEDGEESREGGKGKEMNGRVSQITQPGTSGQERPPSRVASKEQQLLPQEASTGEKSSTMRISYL
T5 sequence (P31391 whole entry): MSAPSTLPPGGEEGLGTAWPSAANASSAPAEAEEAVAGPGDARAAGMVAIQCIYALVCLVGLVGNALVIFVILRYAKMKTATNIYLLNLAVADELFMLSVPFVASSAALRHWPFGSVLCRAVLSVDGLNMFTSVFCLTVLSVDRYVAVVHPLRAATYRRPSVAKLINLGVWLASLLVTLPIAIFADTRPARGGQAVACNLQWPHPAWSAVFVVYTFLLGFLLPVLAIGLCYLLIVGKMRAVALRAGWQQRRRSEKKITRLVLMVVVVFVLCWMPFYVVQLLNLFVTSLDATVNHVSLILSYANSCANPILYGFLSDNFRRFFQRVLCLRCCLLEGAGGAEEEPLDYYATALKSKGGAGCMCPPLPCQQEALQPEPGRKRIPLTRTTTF
T3 sequence (P30872 whole entry): as the sequence (P28646 whole entry) above, with P8S, T11S, S16P, G20S, V25G, C26G, S32A, S45A, A385T, S389T counted along it
T4 sequence (P35346 whole entry): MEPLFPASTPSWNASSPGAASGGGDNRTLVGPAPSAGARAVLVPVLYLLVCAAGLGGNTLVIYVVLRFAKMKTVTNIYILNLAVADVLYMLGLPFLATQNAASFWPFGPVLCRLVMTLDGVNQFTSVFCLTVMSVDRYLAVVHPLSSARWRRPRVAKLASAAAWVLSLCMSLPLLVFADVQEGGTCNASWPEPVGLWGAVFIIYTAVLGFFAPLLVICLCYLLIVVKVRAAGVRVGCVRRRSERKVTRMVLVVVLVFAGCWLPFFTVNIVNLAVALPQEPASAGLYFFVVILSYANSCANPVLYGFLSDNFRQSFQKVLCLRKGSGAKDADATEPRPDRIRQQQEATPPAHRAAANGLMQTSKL

Row | Compound | IC50 (rat SST-R4; [1]) [nM] | IC50 (rat SST-R4; [2]) [nM] | IC50 (rat SST-R1; [3]) [nM] | IC50 (rat SST-R1; [4]) [nM] | binding to SST-R5 (in words) (rat SST-R5) | IC50 (rat SST-R5; [5]) [nM] | IC50 (rat SST-R5; [6]) [nM] | IC50 (rat SST-R3; [7]) [nM] | IC50 (rat SST-R3; [8]) [nM] | IC50 (rat SST-R2; [9]) [nM] | IC50 (rat SST-R2; [10]) [nM] | IC50 (human SST-R3) [nM] | IC50 (human SST-R1) [nM] | IC50 (human SST-R5) [nM] | IC50 (human SST-R4) [nM] | IC50 (human cloned SST-R2) [nM]
1 | ReO-MA-Dpr(Gly)-βAla-Dab*-Phe-Trp-(D)Trp-Lys-Thr-Phe-GlyC3*-NH2 [PTR 3399] | 15 | 15 | 156 | 156 | binds | 1.3 | 1.3 | 103 | 103 | 1.6 | 1.6 |  |  |  |  | 
2 | ReO-MA-Gly-Gly-Gly-6-aminohexanoic acid-Dab*-Phe-Trp-(D)Trp-Lys-Thr-Phe-GlyC3*-NH2 [PTR 3401] | 20 | 20 | 402 | 402 |  | 3.7 | 3.7 | 110 | 110 | 0.44 | 0.44 |  |  |  |  | 
3 | C[C@@H](O)[C@@H]1NC(=O)[C@H](CCCCN)NC(=O)[C@@H](Cc2c[nH]c3ccccc23)NC(=O)[C@H](Cc2ccccc2)NC(=O)[C@@H]2CSSC[C@H](NC1=O)C(=O)N([C@@H](Cc1ccccc1)C(N)=O)CCCNC(=O)CCCN[C@@H](Cc1ccccc1)C(=O)N2 [PTR 3205, PheC3-Cys-Phe-(D)Trp-Lys-Thr-Cys-PheN3-NH2] |  |  |  |  |  |  |  |  |  |  |  | 323 | 349 | 186 | 123 | 1.5
4 | ReO-MA-Dpr(Gly)-Gly-Dab*-Phe-Trp-(D)Trp-Lys-Thr-Phe-GlyC3*-NH2 [ReO-3397] | 3.3 | 3.3 | 89 | 89 |  | 2.2 | 2.2 | 76 | 76 | 0.25 | 0.25 |  |  |  |  | 
